Structures can show the parent of a compound that is named as a salt. Where two headings read alike, the source gives them in different places.
Key:
[1] = Safety and tolerability in the phase 1 trial (adverse event reports, laboratory tests, ECG, vital signs); format: in vivo, human; settings: after administration of dolutegravir and TDF; of 12 participants
Method: (§1) This was a phase 1, open‐label, fixed‐sequence, 2‐period trial in adults without HIV (protocol MK‐8591‐005). In period 1, participants received a single oral dose of 20 mg islatravir. In period 2, participants received multiple oral doses of 50 mg dolutegravir and 300 mg TDF once daily for 11 consecutive days (days 1‐11), with a single oral dose of 20 mg islatravir coadministered on day 8. There was a washout period of ≥7 days between islatravir dosing in period 1 and the first dose of dolutegravir and TDF in period 2 (Figure 1).
Safety and tolerability were monitored by repeated clinical and laboratory evaluations for the duration of the trial. Safety evaluations included adverse event (AE) reports, laboratory tests, 12‐lead electrocardiograms, and vital signs.
Incidence of adverse experiences was descriptively summarized.

[2] = Plasma pharmacokinetics in phase 1, open-label, fixed-sequence, 2-period drug interaction trial (MK-8591-005); format: in vivo, human; settings: for C24, GMR (90%CI): Islatravir + Dolutegravir + TDF / Dolutegravir + TDF; for half-life / concentration at 24 h / AUC / Cmax / Tmax: human, oral; for half-life / concentration at 24 h / Cmax, GM (95%CI) / tmax, median (min‐max) / Apparent terminal t1/2, geometric mean (geometric CV %) / AUC / Cmax / Tmax: plasma, N = 12; for Tmax: read-out: tmax, median (min‐max)
Method: as §1
Blood samples for islatravir plasma analysis were collected before dosing and at selected time points over 96 hours following administration of islatravir on day 1 of period 1 and day 8 of period 2. In period 2, samples taken at 24, 48, and 72 hours for islatravir plasma analysis were collected before dose administration of dolutegravir and TDF. Blood samples for plasma analysis of dolutegravir and tenofovir were collected before dosing on days 1, 7, and 8 of period 2 and at selected time points over 24 hours after dosing on days 7 and 8 of period 2. The 24 hour samples for dolutegravir and tenofovir analysis for days 7 and 8 were collected before dosing of dolutegravir and TDF.
Plasma concentrations of islatravir, dolutegravir, and tenofovir were determined by inVentiv Health Clinique (Québec City, Québec, Canada) using validated high‐performance liquid chromatography coupled to tandem mass spectrometry methods.
Islatravir (m/z 294.000/154.000) was extracted using an automated protein precipitation method using [^13C,^15N3]‐ISL as internal standard (m/z 297.800/158.000). The extracted samples were assessed on a system equipped with a X Select HSS T3 C18, 50×2.1 mm, 2.5 μm column with water/acetonitrile with formic acid mobile phase. […] The lower limit of quantitation for islatravir was 0.10 ng/mL, with an analytical range of 0.10 to 100.00 ng/mL.
Dolutegravir (m/z 420.200/277.200) was extracted using an automated protein precipitation method using [C^13‐d5]‐dolutegravir as the internal standard (m/z 426.300/277.300). The extracted samples were assessed on a system equipped with an ACE 3 C18, 30 × 4.6 mm, 3 μm column (Avantor, Radnor, Pennsylvania) with water/methanol with ammonium formate and formic acid mobile phase. […] The lower limit of quantitation for dolutegravir was 10.00 ng/mL, with an analytical range of 10.00 to 10 000.00 ng/mL.
Tenofovir (m/z 288.200/176.200) was extracted using an automated solid phase extraction using tenofovir‐d6 as internal standard (m/z 294.100/182.300). The extracted samples were assessed on a system equipped with an Atlantis dC18, 75 × 4.6 mm, 3 μm column (Waters Corp., Milford, Massachusetts) with water/acetonitrile with ammonium formate and formic acid mobile phase. […] The lower limit of quantitation for tenofovir was 0.50 ng/mL, with an analytical range of 0.50 to 500.00 ng/mL.
Plasma islatravir, dolutegravir, and tenofovir pharmacokinetics were summarized descriptively. Pharmacokinetic parameter values were calculated using the software Phoenix WinNonlin version 6.3 (Certara, Princeton, New Jersey). Cmax, C24, and tmax values were obtained directly from the observed plasma concentration–time data.

[3] = parameters: method as in PMID 19884365; settings: once-daily multiple dosing; cited from earlier work
[4] = in vivo; cited from earlier work
[5] = steady state, 50 mg dolutegravir + 300 mg TDF once daily days 1-7, period 2, without islatravir, read-out: Apparent terminal t1/2, geometric mean (geometric CV %) (converted)
[6] = steady state, 50 mg dolutegravir + 300 mg TDF once daily days 1-7, period 2, without islatravir, read-out: Apparent terminal t1/2, AM (SD) (converted)
[7] = steady state, 50 mg dolutegravir + 300 mg TDF once daily days 1-7, period 2, without islatravir, read-out: C24, AM (SD)
[8] = steady state, 50 mg dolutegravir + 300 mg TDF once daily days 1-7, period 2, without islatravir, read-out: C24, GM (95%CI)
[9] = 50 mg dolutegravir + 300 mg TDF once daily with single 20 mg islatravir on day 8, period 2, read-out: C24, AM (SD)
[10] = 50 mg dolutegravir + 300 mg TDF once daily with single 20 mg islatravir on day 8, period 2, read-out: C24, GM (95%CI)
[11] = steady state, 50 mg dolutegravir + 300 mg TDF once daily days 1-7, period 2, without islatravir
[12] = 50 mg dolutegravir + 300 mg TDF once daily with single 20 mg islatravir on day 8, period 2

SMILES	participants reporting AEs considered drug-related [1] [participants]	C24, GMR (90%CI) [2]	half-life [2, 5] [h]	half-life [2, 6] [h]	concentration at 24 h [2, 7] [ng/mL]	concentration at 24 h [2, 8] [ng/mL]	concentration at 24 h [2, 9] [ng/mL]	concentration at 24 h [2, 10] [ng/mL]	Apparent terminal t1/2, geometric mean (geometric CV %) [2, 12]	also measured
C[C@@H]1CCO[C@H]2Cn3cc(C(=O)NCc4ccc(F)cc4F)c(=O)c(O)c3C(=O)N12 [Dolutegravir]	3	1.10 (1.03‐1.17)	15.2	15.3	1220	1120	1310	1240	15.5 (16.2) h	half-life ([2]; 50 mg dolutegravir + 300 mg TDF once daily with single 20 mg islatravir on day 8, period 2, read-out: Apparent terminal t1/2, AM (SD) (converted)): 15.7 h; Cmax, GM (95%CI) [2, 11]: 3500 (2770‐4430) ng/mL; tmax, median (min‐max) [2, 11]: 2.50 (0.50‐4.13) h; Cmax, GM (95%CI) [2, 12]: 3570 (2950‐4330) ng/mL; tmax, median (min‐max) [2, 12]: 3.00 (1.00‐6.03) h; time to steady‐state concentrations [3]: ≤ 5 days
CC(C)OC(=O)OCOP(=O)(CO[C@H](C)Cn1cnc2c(N)ncnc21)OCOC(=O)OC(C)C [TDF, tenofovir disoproxil fumarate]	3	–	–	–	–	–	–	–	–	–
C[C@H](Cn1cnc2c(N)ncnc21)OCP(=O)(O)O [Tenofovir]	–	1.05 (0.97‐1.14)	13.7	13.8	43.6	42.6	45.3	44.8	13.2 (11.0) h	AUC ([2]; steady state, 50 mg dolutegravir + 300 mg TDF once daily days 1-7, period 2, without islatravir, read-out: AUC0‐24, AM (SD)): 2250 ng·h/mL; AUC ([2]; steady state, 50 mg dolutegravir + 300 mg TDF once daily days 1-7, period 2, without islatravir, read-out: AUC0‐24, GM (95%CI)): 2220 ng·h/mL; Cmax ([2]; steady state, 50 mg dolutegravir + 300 mg TDF once daily days 1-7, period 2, without islatravir, read-out: Cmax, AM (SD)): 346 ng/mL; Cmax ([2]; steady state, 50 mg dolutegravir + 300 mg TDF once daily days 1-7, period 2, without islatravir, read-out: Cmax, GM (95%CI)): 339 ng/mL; Tmax [2, 11]: 1 h; AUC ([2]; 50 mg dolutegravir + 300 mg TDF once daily with single 20 mg islatravir on day 8, period 2, read-out: AUC0‐24, AM (SD)): 2350 ng·h/mL; AUC ([2]; 50 mg dolutegravir + 300 mg TDF once daily with single 20 mg islatravir on day 8, period 2, read-out: AUC0‐24, GM (95%CI)): 2330 ng·h/mL; Cmax ([2]; 50 mg dolutegravir + 300 mg TDF once daily with single 20 mg islatravir on day 8, period 2, read-out: Cmax, AM (SD)): 343 ng/mL; Cmax ([2]; 50 mg dolutegravir + 300 mg TDF once daily with single 20 mg islatravir on day 8, period 2, read-out: Cmax, GM (95%CI)): 333 ng/mL; Tmax [2, 12]: 1.01 h; time to steady‐state concentrations [4]: ≤ 7 days

From article PMC9298070, “Lack of a Clinically Meaningful Drug Interaction Between the HIV‐1 Antiretroviral Agents Islatravir, Dolutegravir, and Tenofovir Disoproxil Fumarate” (Clinical Pharmacology in Drug Development, 2021)
